In ChEMBL document CHEMBL1201862, “PubChem BioAssay data set” (2004):
One block for each compound: values may come before it. Calls of active or inactive are those of the source.

Experiments:
[1] = molecular target: Photoreceptor-specific nuclear receptor (Homo sapiens, UniProt Q9Y5X4); format: functional, cell-based;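 further: CHO-S cells with Gal4-NCOR and VP16-NR2E3 two-hybrid luciferase reporter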
[2] = cells; format: functional, cell-based
[3] = molecular target: Beta-galactosidase (Escherichia coli, UniProt Q8VNN2); test: PubChem AID 485352; format: functional
[4] = molecular target: T1, Type-1 angiotensin II receptor (Homo sapiens, UniProt P30556); test: AT1 receptor antagonists, dose response, selectivity assay for APJ receptor antagonist project, cell-based, uHTS hits (AID 463214); format: functional;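 further: antagonist potency against angiotensin II stimulated AT1 response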
T1 sequence (P30556 whole entry): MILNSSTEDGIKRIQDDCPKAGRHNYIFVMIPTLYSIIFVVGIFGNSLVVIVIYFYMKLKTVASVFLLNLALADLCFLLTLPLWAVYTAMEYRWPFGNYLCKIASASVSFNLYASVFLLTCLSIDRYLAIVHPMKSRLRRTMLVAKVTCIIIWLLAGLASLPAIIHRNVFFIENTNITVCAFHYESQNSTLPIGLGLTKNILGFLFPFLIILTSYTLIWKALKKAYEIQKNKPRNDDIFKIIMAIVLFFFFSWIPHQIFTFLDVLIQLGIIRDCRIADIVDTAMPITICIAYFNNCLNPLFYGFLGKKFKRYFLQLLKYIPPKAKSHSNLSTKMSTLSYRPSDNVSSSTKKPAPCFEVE

[5] = cells; format: functional, cell-based; remark: listed apart in the source
[6] = molecular target: T2, Microphthalmia-associated transcription factor (Homo sapiens, UniProt O75030); test: TRPM1 promoter luciferase signal decrease, dose response, MITF inhibitor project, cell-based, SK-MEL-5, cherry-picked, set 3 (AID 493073); format: functional
T2 sequence (O75030 whole entry): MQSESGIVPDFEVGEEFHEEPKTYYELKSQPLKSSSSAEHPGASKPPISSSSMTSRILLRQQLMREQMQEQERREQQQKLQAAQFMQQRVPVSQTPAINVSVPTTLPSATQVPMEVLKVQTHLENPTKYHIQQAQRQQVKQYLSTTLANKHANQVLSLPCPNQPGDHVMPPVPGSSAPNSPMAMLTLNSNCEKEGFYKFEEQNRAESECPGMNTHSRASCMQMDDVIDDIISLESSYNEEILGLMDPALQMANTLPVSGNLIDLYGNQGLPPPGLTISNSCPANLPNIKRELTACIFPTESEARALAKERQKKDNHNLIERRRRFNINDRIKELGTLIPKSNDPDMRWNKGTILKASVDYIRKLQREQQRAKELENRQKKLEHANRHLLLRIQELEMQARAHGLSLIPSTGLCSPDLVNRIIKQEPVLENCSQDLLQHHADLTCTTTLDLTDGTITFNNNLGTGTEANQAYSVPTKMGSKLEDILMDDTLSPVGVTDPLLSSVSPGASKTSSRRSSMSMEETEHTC

[7] = tested on: CHO; test: cytotoxicity in TLR9-MyD88 CHO cells, dose response, cytotoxicity control for TLR9-MyD88 binding inhibitor project, cell-based, luminescence (AID 588339); format: functional, hamster; conditions: Cricetulus griseus;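 further: CHO cells stably coexpressing TLR9 and MyD88 fusions from primary screen; compound exposure lasted 48 hours before viability readout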
[8] = molecular target: T3, Beta Lactamase (Pseudomonas aeruginosa, UniProt Q932Y6); test: beta-lactamase reporter inhibitor potency, dose response, artefact control for TLR9-MyD88 binding inhibitor project, BLA reporter cells, FRET fluorescence (AID 588341); format: cell-based;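 further: cell based assay in CHO-K1 cells stably expressing beta-lactamase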
[9] = Fluorescence-based cell-based high throughput dose response assay for inhibitors of the interaction of nucleotide-binding oligomerization domain containing 2 (NOD2) and the receptor-interacting serine-threonine kinase 2 (RIPK2).; format: functional; conditions: Homo sapiens
[10] = molecular target: T3, Beta Lactamase; test: beta-lactamase reporter inhibitor potency, dose response, artefact control for NOD2-RIPK2 interaction inhibitor project, BLA reporter cells, FRET fluorescence (AID 651552); format: functional, cell-based
[11] = molecular target: T4, ATP-dependent translocase ABCB1 (Homo sapiens, UniProt P08183); test: ABCG2 efflux pump inhibitor potency, dose response, Ig-MXP3 cells, JC-1, flow cytometry, set 2 (AID 504566); format: functional; conditions: read-out: EC50_MICROM_;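 further: flow cytometry median green fluorescence of retained JC-1 dye; potency of efflux pump inhibition measured as rising substrate retention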
[12] = molecular target: T4, ATP-dependent translocase ABCB1; test: ABCB1 efflux inhibitor potency, dose response, Jurkat-DNR cells, JC-1, flow cytometry, set 2 (AID 504569); format: functional; conditions: read-out: EC50_MICROM_;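 further: potency of pump inhibitors that raise cellular JC-1 green fluorescence up to the nicardipine level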

T3 sequence (Q932Y6 whole entry, the tested form may be a part): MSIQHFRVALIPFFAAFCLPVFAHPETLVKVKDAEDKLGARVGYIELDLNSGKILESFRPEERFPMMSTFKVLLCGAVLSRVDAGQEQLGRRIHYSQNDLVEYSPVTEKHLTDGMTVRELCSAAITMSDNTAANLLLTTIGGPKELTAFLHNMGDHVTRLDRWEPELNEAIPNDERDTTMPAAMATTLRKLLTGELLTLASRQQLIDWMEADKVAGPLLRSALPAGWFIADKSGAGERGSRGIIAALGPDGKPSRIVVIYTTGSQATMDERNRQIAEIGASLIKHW
T4 sequence (P08183 whole entry): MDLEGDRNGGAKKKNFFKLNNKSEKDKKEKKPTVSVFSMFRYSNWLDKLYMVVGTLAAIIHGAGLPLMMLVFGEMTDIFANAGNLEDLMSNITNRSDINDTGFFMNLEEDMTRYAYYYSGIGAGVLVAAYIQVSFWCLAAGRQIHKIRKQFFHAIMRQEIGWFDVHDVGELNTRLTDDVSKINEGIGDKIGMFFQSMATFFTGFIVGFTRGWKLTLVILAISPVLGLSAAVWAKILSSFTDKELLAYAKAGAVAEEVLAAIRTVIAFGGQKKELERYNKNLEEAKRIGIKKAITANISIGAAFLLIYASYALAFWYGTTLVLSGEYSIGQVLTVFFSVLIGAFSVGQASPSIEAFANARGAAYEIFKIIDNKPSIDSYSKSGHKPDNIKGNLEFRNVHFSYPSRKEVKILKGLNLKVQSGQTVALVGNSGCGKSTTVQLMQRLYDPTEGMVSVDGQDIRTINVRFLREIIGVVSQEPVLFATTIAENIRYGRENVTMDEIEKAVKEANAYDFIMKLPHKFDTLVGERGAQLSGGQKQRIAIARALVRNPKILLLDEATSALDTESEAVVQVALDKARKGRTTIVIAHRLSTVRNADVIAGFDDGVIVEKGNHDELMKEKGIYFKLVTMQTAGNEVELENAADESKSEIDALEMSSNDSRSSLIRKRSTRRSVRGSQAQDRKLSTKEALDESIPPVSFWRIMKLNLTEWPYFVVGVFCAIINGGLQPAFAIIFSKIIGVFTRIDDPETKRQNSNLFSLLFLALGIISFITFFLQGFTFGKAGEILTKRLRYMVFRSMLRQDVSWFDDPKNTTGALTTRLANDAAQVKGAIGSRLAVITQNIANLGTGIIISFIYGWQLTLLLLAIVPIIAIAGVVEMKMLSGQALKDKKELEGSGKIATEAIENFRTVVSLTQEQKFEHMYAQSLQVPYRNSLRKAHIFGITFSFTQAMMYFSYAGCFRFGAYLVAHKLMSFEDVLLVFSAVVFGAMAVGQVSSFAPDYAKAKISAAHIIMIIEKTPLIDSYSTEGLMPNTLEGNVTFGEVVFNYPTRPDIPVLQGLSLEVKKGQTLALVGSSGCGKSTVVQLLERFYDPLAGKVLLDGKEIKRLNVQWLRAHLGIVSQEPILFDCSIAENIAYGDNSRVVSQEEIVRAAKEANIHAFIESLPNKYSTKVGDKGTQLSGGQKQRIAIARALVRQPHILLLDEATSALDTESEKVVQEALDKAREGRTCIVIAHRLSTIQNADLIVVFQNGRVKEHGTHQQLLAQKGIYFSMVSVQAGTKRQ
Photoreceptor-specific nuclear receptor, sequence (Q9Y5X4 whole entry, the tested form may be a part): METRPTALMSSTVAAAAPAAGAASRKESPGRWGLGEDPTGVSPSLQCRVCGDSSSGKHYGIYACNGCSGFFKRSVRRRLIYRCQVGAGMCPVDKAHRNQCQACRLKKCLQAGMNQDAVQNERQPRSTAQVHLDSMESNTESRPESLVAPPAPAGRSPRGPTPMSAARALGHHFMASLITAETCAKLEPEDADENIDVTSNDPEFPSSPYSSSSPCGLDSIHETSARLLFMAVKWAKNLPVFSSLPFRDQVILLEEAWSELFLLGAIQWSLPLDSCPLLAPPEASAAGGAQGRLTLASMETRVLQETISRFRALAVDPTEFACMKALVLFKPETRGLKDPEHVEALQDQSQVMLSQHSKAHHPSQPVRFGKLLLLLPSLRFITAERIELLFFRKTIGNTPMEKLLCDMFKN
Beta-galactosidase, sequence (Q8VNN2 whole entry): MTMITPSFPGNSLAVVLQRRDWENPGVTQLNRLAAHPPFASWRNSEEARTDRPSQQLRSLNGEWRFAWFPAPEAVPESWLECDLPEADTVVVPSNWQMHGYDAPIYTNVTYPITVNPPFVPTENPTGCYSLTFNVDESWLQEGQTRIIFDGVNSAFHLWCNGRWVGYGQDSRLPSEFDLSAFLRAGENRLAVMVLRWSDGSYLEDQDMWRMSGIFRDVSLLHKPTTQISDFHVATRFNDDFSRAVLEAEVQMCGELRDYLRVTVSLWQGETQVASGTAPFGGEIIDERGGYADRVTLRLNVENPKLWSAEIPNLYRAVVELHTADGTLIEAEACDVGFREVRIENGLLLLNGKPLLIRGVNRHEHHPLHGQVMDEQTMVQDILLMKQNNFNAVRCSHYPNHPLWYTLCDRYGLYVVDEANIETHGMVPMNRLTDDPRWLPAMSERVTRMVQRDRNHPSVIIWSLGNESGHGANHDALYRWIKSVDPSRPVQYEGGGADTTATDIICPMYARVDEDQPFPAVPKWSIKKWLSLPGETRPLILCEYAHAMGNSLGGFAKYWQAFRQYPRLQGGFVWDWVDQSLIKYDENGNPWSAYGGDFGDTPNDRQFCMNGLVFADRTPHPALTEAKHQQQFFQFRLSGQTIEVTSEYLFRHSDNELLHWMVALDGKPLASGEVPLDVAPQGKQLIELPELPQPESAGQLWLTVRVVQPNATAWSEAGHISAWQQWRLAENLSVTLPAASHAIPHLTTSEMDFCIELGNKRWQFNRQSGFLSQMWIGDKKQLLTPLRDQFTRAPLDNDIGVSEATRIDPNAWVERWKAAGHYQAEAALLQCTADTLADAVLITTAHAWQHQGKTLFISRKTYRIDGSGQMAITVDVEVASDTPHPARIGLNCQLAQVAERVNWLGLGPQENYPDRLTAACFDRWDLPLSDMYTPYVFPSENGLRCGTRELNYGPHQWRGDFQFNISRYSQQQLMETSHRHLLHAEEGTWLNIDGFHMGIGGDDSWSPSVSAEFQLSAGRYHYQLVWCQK

- IC50 [1]: 3.65 µM (active)
SMILES: CC(C(=O)N1CCN(c2ccc(Cl)cc2)CC1)c1ncc(C(F)(F)F)cc1Cl (configuration not stated)

SMILES: COc1ccc(C(=O)/C=C/C(=O)N(CC(=O)NC2CCCCC2)CC2CCCO2)c(O)c1 (configuration not stated)
- EC50 [2]: > 350 µM (not active)
- EC50 [3]: > 40 µM (inactive)
- IC50 [4]: 5.35 µM (active)
- EC50 [5]: 34.3 µM (active)
- AC50 [6]: 4.01 µM (active)
- IC50 [7]: 1.84 µM (active)
- IC50 [8]: 23.3 µM (inactive)
- IC50 [9]: 2.17 µM (active)
- IC50 [10]: 19.9 µM (inactive)

- EC50 [11]: 17.7 µM (inactive)
- EC50 [12]: 28.1 µM (inactive)
SMILES: Cc1cc(N2CCN(C(=O)c3ccco3)CC2)n2nc(C)c(-c3ccc(Cl)cc3)c2n1
